Literature values as cited in patent US20080014285A1, “METHOD OF TREATING NEURODEGENERATIVE BRAIN DISEASE WITH A COMPOSITE COMPRISING […] NANOPARTICLES AND A […] COMPOUND” (priority 2006, published 2008).

Columns and labels:
traumatic brain injury = settings: administration no more than 12 hours post-trauma
[1] = tested on: glutamate-induced nitric oxide related neurotoxicity
[2] = systemic administration; patients with intracranial hypertension
[3] = peripheral administration, hypermagnesemia
dopaminergic neurons = settings: low dose; PD

## [Mg+2] [magnesium]
Traumatic brain injury
  brain magnesium homeostasis: restores brain magnesium homeostasis
  motor and cognitive outcome: profoundly improves both motor and cognitive outcome

## CN(c1nc2ccccc2s1)C1CCN(C[C@H](O)COc2ccc(F)c(F)c2)CC1 [lubeluzole]
[1]
  glutamate-induced nitric oxide related neurotoxicity: inhibits

## O=S(=O)([O-])[O-].[Mg+2] [magnesium sulfate]
[2]
  CSF ionized magnesium concentration: failed to increase
  increase of plasma magnesium levels: > 50%
[3]
  total and ionized CSF [Mg]: only marginal increases

## VEGF
Dopaminergic neurons
  neuroprotection of dopaminergic neurons: neuroprotective
